# Assay results: EPA's ToxValDB 9.5 (doi:10.2903/j.efsa.2008.150r)
# Experiments:
# [1] = tested on: Anas platyrhynchos; settings: for LD50: oral, mortality; for NOEL: reproductive
# [2] = tested on: Rattus norvegicus; settings: for LD50: acute, mortality
# [3] = tested on: Apis mellifera; settings: acute; duration: 48 hours; oral; unspecified; mortality
# [4] = tested on: Oncorhynchus mykiss
# [5] = tested on: Tagia sp.; settings: acute; duration: 14 days; mortality
# [6] = tested on: Aphidius rhopalosiphi; experiment: LR50; higher = less toxic; settings: not reported; mortality
# [7] = tested on: Typhlodromus pyri; experiment: LR50; higher = less toxic; settings: not reported; mortality
SMILES,"LD50 ([1]; short-term, feed)",LD50 ([2]; oral),"NOEL ([2]; reproduction developmental, M, reproduction)","LD50 ([1]; acute, unspecified)",NOEL ([1]; duration: 6 weeks),"NOEL ([1]; duration: 20 weeks, body weight)",LD50 [2],NOEL ([2]; chronic),"LOAEL ([2]; chronic, duration: 2 years, organ weight)","NOAEL ([2]; reproduction developmental, organ weight)",LD50 [3],"LC50 ([4]; acute, duration: 96 hours, mortality)","NOEC ([4]; chronic/long-term, duration: 28 days, growth)",LC50 [5],LR50 [6],LR50 [7]
"CS(=O)(=O)c1ccc(C(=O)O)c(Cl)c1 [Benzoic acid, 2-chloro-4-(methylsulfonyl)-]",> 2010 mg/kg-day,> 2000 mg/kg-day,969 mg/kg-day,–,–,–,–,–,–,–,–,–,–,–,–,–
CS(=O)(=O)c1ccc(C(=O)C2C(=O)CCCC2=O)c(Cl)c1 [Sulcotrione],> 1260 mg/kg-day,–,–,> 1350 mg/kg-day,17 mg/kg-day,< 10.9 mg/kg-day,> 5000 mg/kg-day,0.5 mg/kg-day,0.04 mg/kg-day,0.06 mg/kg-day,50 µg/piece,227 µg/mL,3.2 mg/L,> 1000 mg/kg,> 450 g/ha,> 450 g/ha
